Laboratory results as given in patent US10925856B2, “Methods and compositions involving bucindolol for the treatment of atrial fibrillation” (priority 2018, dated 2021).

What was measured:
[1] = in vivo; cited from earlier work
[2] = test system: plasma norepinephrine; assay: Plasma norepinephrine (HPLC with electrochemical detection); conditions: for Norepinephrine, ΔWeek 12 Mean ± SEM / Norepinephrine, ΔWeek 12 Median / Norepinephrine, ΔWeek 24 Mean ± SEM / Norepinephrine, ΔWeek 24 Median: change from baseline
[3] = Europe excluding Hungary (n = 48)

COCCc1ccc(OCC(O)CNC(C)C)cc1 (centres unmarked) [metoprolol, metoprolol succinate, reference compound]
Bioavailability [1]: approximately 50%
Plasma norepinephrine, Week 4 Mean ([2]; Canada): 613 pg/mL
Plasma norepinephrine, Week 4 Median ([2]; Canada): 605 pg/mL
Plasma norepinephrine, change from baseline to Week 4, Mean ±SEM ([2]; Canada): -97 pg/mL
Plasma norepinephrine, change from baseline to Week 4, Median ([2]; Canada): -59 pg/mL
Norepinephrine, Baseline Mean ± SD ([2]; Canada (n = 59)): 674 ± 429 pg/mL
Norepinephrine, Baseline Median ([2]; Canada (n = 59)): 541 pg/mL
Norepinephrine, Week 12 Mean ± SD ([2]; Canada (n = 59)): 577 ± 273 pg/mL
Norepinephrine, Week 12 Median ([2]; Canada (n = 59)): 563 pg/mL
Norepinephrine, Week 24 Mean ± SD ([2]; Canada (n = 59)): 722 ± 303 pg/mL
Norepinephrine, Week 24 Median ([2]; Canada (n = 59)): 690 pg/mL
Change in NE at Week 4, median (Q1, Q3) ([2]; Entire Cohort): −10 (198,121) pg/ml
Plasma norepinephrine, Week 4 Mean ([2]; Entire Cohort): 617 pg/mL
Plasma norepinephrine, Week 4 Median ([2]; Entire Cohort): 570 pg/mL
Plasma norepinephrine, change from baseline to Week 4, Mean ±SEM ([2]; Entire Cohort): 36 ± 32 pg/mL
Plasma norepinephrine, change from baseline to Week 4, Median ([2]; Entire Cohort): -10 pg/mL
Norepinephrine, Baseline Mean ± SD ([2]; Entire Cohort (n = 267)): 664 ± 359 pg/mL
Norepinephrine, Baseline Median ([2]; Entire Cohort (n = 267)): 590 pg/mL
Norepinephrine, Week 12 Mean ± SD ([2]; Entire Cohort (n = 267)): 605 ± 266 pg/mL
Norepinephrine, Week 12 Median ([2]; Entire Cohort (n = 267)): 566 pg/mL
Norepinephrine, Week 24 Mean ± SD ([2]; Entire Cohort (n = 267)): 690 ± 414 pg/mL
Norepinephrine, Week 24 Median ([2]; Entire Cohort (n = 267)): 586 pg/mL
Plasma norepinephrine, change from baseline to Week 4, Mean ±SEM ([2]; Entire Cohort, listed as Met): -36 pg/mL
Plasma norepinephrine, Week 4 Mean ([2]; Europe excluding Hungary): 676 pg/mL
Plasma norepinephrine, Week 4 Median ([2]; Europe excluding Hungary): 612 pg/mL
Plasma norepinephrine, change from baseline to Week 4, Mean ±SEM ([2]; Europe excluding Hungary): -18 pg/mL
Plasma norepinephrine, change from baseline to Week 4, Median ([2]; Europe excluding Hungary): -12 pg/mL
Norepinephrine, Baseline Mean ± SD [2, 3]: 675 ± 250 pg/mL
Norepinephrine, Baseline Median [2, 3]: 592 pg/mL
Norepinephrine, Week 12 Mean ± SD [2, 3]: 640 ± 283 pg/mL
Norepinephrine, Week 12 Median [2, 3]: 614 pg/mL
Norepinephrine, Week 24 Mean ± SD [2, 3]: 904 ± 348 pg/mL
Norepinephrine, Week 24 Median [2, 3]: 924 pg/mL
Plasma norepinephrine, Week 4 Mean ([2]; Hungary): 530 pg/mL
Plasma norepinephrine, Week 4 Median ([2]; Hungary): 460 pg/mL
Plasma norepinephrine, change from baseline to Week 4, Mean ±SEM ([2]; Hungary): -35 pg/mL
Plasma norepinephrine, change from baseline to Week 4, Median ([2]; Hungary): -70 pg/mL
Norepinephrine, Baseline Mean ± SD ([2]; Hungary (n = 33)): 627 ± 258 pg/mL
Norepinephrine, Baseline Median ([2]; Hungary (n = 33)): 571 pg/mL
Norepinephrine, Week 12 Mean ± SD ([2]; Hungary (n = 33)): 716 ± 308 pg/mL
Norepinephrine, Week 12 Median ([2]; Hungary (n = 33)): 590 pg/mL
Norepinephrine, Week 24 Mean ± SD ([2]; Hungary (n = 33)): 716 ± 301 pg/mL
Norepinephrine, Week 24 Median ([2]; Hungary (n = 33)): 668 pg/mL
Plasma norepinephrine, Week 4 Mean ([2]; U.S.): 616 pg/mL
Plasma norepinephrine, Week 4 Median ([2]; U.S.): 556 pg/mL
Plasma norepinephrine, change from baseline to Week 4, Mean ±SEM ([2]; U.S.): -18 pg/mL
Plasma norepinephrine, change from baseline to Week 4, Median ([2]; U.S.): +29 pg/ml
Norepinephrine, Baseline Mean ± SD ([2]; U.S. (n = 127)): 664 ± 386 pg/mL
Norepinephrine, Baseline Median ([2]; U.S. (n = 127)): 599 pg/mL
Norepinephrine, Week 12 Mean ± SD ([2]; U.S. (n = 127)): 576 ± 246 pg/mL
Norepinephrine, Week 12 Median ([2]; U.S. (n = 127)): 560 pg/mL
Norepinephrine, Week 24 Mean ± SD ([2]; U.S. (n = 127)): 639 ± 472 pg/mL
Norepinephrine, Week 24 Median ([2]; U.S. (n = 127)): 519 pg/mL
Within group NE change ([2]; Week 4, any of the regions): not associated with a within group NE change
Norepinephrine, ΔWeek 12 Mean ± SEM ([2]; Canada (n = 59)): -111 ± 57 pg/mL
Norepinephrine, ΔWeek 12 Median ([2]; Canada (n = 59)): -85 pg/mL
Norepinephrine, ΔWeek 24 Mean ± SEM ([2]; Canada (n = 59)): 18 ± 75 pg/mL
Norepinephrine, ΔWeek 24 Median ([2]; Canada (n = 59)): -10 pg/mL
Norepinephrine, ΔWeek 12 Mean ± SEM ([2]; Entire Cohort (n = 267)): -64 ± 30 pg/mL
Norepinephrine, ΔWeek 12 Median ([2]; Entire Cohort (n = 267)): -57 pg/mL
Norepinephrine, ΔWeek 24 Mean ± SEM ([2]; Entire Cohort (n = 267)): 2 ± 33 pg/mL
Norepinephrine, ΔWeek 24 Median ([2]; Entire Cohort (n = 267)): -24 pg/mL
Norepinephrine, ΔWeek 12 Mean ± SEM [2, 3]: -52 ± 65 pg/mL
Norepinephrine, ΔWeek 12 Median [2, 3]: -76 pg/mL
Norepinephrine, ΔWeek 24 Median [2, 3]: 232 pg/mL
Norepinephrine, ΔWeek 12 Mean ± SEM ([2]; Hungary (n = 33)): 144 ± 89 pg/mL
Norepinephrine, ΔWeek 12 Median ([2]; Hungary (n = 33)): 37 pg/mL
Norepinephrine, ΔWeek 24 Mean ± SEM ([2]; Hungary (n = 33)): 148 ± 336 pg/mL
Norepinephrine, ΔWeek 24 Median ([2]; Hungary (n = 33)): -42 pg/mL
Norepinephrine, ΔWeek 12 Mean ± SEM ([2]; U.S. (n = 127)): -100 ± 43 pg/mL
Norepinephrine, ΔWeek 12 Median ([2]; U.S. (n = 127)): -66 pg/mL
Norepinephrine, ΔWeek 24 Mean ± SEM ([2]; U.S. (n = 127)): -46 ± 40 pg/mL
Norepinephrine, ΔWeek 24 Median ([2]; U.S. (n = 127)): -46 pg/mL
Reduction in NE ([2]; week 12, entire cohort): 57 pg/mL
